Measured values taken from patent publication US12661356B2, “L718 and/or L792 mutant treatment-resistant EGFR inhibitor” (TAIHO PHARMACEUTICAL CO., LTD., priority 2018, dated 2026).

Assays:
Test in all cases: Intracellular EGFR phosphorylation, mutant EGFR forced expression system using HEK293 cells
Format in all cases: cell-based
Settings in all cases: 6 hours incubation, p-EGFR (Tyr1068)/EGFR
[1] = target: T1, human EGFR L858R+T790M (Homo sapiens, UniProt P00533, L858R/T790M)
T1 construct: expressed in transfected cells; host or cells: Jump-In Grip HEK293 cells (Thermo Fisher Scientific)

[2] = target: T2, human EGFR Ex19del (Del E746-A750) (Homo sapiens, UniProt P00533, DEL746-750)
T2 construct: expressed in transfected cells; host or cells: Jump-In Grip HEK293 cells (Thermo Fisher Scientific)

[3] = target: T3, human EGFR L858R+T790M+L792Y (Homo sapiens, UniProt P00533, L792Y/L858R/T790M)
T3 construct: expressed in transfected cells; host or cells: Jump-In Grip HEK293 cells (Thermo Fisher Scientific)

[4] = target: T4, human EGFR Ex19del+T790M+L718Q (Homo sapiens, UniProt P00533, DEL746-750/L718Q/T790M)
T4 construct: expressed in transfected cells; host or cells: Jump-In Grip HEK293 cells (Thermo Fisher Scientific)

[5] = target: T5, human EGFR L858R+T790M+L718Q (Homo sapiens, UniProt P00533, L718Q/L858R/T790M)
T5 construct: expressed in transfected cells; host or cells: Jump-In Grip HEK293 cells (Thermo Fisher Scientific)

[6] = target: T6, human EGFR Ex19del+T790M+L792Y (Homo sapiens, UniProt P00533, DEL746-750/L792Y/T790M)
T6 construct: expressed in transfected cells; host or cells: Jump-In Grip HEK293 cells (Thermo Fisher Scientific)

[7] = target: T7, human EGFR Ex19del+T790M+L792H (Homo sapiens, UniProt P00533, DEL746-750/L792H/T790M)
T7 construct: expressed in transfected cells; host or cells: Jump-In Grip HEK293 cells (Thermo Fisher Scientific)

[8] = target: T8, human EGFR L858R+T790M+L792F (Homo sapiens, UniProt P00533, L792F/L858R/T790M)
T8 construct: expressed in transfected cells; host or cells: Jump-In Grip HEK293 cells (Thermo Fisher Scientific)

[9] = target: T9, human EGFR L858R (Homo sapiens, UniProt P00533, L858R)
T9 construct: expressed in transfected cells; host or cells: Jump-In Grip HEK293 cells (Thermo Fisher Scientific)

[10] = target: T10, human EGFR Ex19del+T790M+L792F (Homo sapiens, UniProt P00533, DEL746-750/L792F/T790M)
T10 construct: expressed in transfected cells; host or cells: Jump-In Grip HEK293 cells (Thermo Fisher Scientific)

[11] = target: T11, human EGFR Ex19del+T790M (Homo sapiens, UniProt P00533, DEL746-750/T790M)
T11 construct: expressed in transfected cells; host or cells: Jump-In Grip HEK293 cells (Thermo Fisher Scientific)

[12] = target: T12, human EGFR L858R+T790M+L792H (Homo sapiens, UniProt P00533, L792H/L858R/T790M)
T12 construct: expressed in transfected cells; host or cells: Jump-In Grip HEK293 cells (Thermo Fisher Scientific)
T12 sequence (P00533 25-1210 T790M/L792H/L858R): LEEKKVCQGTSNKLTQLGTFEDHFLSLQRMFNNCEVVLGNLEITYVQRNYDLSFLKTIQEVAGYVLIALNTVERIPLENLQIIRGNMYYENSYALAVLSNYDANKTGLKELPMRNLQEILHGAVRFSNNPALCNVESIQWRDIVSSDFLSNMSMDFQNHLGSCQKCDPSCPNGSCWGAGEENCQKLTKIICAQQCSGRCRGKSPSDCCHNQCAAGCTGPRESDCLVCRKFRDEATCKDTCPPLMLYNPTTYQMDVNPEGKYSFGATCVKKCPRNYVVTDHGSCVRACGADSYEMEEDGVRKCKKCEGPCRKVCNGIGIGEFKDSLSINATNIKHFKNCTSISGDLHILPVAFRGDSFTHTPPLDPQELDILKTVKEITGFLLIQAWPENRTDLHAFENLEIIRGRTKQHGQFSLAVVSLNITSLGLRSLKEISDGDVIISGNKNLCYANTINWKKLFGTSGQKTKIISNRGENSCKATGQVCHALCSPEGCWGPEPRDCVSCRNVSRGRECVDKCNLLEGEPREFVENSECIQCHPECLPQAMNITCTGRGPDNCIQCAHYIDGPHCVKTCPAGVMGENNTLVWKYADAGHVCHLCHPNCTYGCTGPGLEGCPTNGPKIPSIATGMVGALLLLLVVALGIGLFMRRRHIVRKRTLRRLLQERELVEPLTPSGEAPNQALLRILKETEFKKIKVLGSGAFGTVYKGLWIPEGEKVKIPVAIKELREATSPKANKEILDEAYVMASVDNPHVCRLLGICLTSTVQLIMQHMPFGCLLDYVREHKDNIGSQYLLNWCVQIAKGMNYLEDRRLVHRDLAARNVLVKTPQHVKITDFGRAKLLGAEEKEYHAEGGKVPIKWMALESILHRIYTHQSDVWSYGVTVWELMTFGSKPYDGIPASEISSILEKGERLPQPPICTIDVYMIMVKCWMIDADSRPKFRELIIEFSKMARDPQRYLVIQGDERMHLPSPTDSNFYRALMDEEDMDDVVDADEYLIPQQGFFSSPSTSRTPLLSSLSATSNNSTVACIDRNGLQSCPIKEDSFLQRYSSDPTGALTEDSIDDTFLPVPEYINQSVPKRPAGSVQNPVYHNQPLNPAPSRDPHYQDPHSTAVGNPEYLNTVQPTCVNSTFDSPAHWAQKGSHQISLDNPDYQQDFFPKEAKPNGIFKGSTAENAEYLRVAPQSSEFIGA

T8 sequence (P00533 25-1210 T790M/L792F/L858R): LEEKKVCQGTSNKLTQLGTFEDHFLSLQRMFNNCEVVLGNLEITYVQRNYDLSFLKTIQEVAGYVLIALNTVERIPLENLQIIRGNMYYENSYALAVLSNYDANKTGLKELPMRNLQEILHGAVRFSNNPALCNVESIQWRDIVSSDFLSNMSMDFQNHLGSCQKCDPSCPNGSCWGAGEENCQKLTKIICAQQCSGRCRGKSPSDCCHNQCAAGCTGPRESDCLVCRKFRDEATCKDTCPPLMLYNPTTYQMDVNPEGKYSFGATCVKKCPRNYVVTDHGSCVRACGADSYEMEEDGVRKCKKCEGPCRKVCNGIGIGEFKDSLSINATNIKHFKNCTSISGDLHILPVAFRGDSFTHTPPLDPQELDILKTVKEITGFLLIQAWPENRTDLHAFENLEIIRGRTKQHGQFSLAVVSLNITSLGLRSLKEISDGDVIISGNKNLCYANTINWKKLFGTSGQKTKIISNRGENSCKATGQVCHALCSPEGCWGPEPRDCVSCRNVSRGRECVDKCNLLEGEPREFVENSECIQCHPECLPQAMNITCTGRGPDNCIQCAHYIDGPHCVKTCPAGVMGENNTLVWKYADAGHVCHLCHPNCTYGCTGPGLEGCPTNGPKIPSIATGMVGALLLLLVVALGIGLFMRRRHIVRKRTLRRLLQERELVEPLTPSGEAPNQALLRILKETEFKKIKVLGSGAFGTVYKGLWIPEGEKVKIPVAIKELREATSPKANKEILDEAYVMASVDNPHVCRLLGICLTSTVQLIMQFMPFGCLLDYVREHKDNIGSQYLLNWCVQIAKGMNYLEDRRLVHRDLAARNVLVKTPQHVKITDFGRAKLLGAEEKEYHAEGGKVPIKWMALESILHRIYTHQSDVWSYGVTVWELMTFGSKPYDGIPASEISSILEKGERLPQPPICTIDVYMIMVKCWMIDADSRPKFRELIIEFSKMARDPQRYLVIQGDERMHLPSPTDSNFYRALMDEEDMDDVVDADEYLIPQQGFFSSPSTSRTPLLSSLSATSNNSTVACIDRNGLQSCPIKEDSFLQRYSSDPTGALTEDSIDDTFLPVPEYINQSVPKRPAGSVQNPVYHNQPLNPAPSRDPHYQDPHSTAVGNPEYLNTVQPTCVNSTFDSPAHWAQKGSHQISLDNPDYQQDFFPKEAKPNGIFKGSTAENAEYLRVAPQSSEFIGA
T5 sequence (P00533 25-1210 L718Q/T790M/L858R): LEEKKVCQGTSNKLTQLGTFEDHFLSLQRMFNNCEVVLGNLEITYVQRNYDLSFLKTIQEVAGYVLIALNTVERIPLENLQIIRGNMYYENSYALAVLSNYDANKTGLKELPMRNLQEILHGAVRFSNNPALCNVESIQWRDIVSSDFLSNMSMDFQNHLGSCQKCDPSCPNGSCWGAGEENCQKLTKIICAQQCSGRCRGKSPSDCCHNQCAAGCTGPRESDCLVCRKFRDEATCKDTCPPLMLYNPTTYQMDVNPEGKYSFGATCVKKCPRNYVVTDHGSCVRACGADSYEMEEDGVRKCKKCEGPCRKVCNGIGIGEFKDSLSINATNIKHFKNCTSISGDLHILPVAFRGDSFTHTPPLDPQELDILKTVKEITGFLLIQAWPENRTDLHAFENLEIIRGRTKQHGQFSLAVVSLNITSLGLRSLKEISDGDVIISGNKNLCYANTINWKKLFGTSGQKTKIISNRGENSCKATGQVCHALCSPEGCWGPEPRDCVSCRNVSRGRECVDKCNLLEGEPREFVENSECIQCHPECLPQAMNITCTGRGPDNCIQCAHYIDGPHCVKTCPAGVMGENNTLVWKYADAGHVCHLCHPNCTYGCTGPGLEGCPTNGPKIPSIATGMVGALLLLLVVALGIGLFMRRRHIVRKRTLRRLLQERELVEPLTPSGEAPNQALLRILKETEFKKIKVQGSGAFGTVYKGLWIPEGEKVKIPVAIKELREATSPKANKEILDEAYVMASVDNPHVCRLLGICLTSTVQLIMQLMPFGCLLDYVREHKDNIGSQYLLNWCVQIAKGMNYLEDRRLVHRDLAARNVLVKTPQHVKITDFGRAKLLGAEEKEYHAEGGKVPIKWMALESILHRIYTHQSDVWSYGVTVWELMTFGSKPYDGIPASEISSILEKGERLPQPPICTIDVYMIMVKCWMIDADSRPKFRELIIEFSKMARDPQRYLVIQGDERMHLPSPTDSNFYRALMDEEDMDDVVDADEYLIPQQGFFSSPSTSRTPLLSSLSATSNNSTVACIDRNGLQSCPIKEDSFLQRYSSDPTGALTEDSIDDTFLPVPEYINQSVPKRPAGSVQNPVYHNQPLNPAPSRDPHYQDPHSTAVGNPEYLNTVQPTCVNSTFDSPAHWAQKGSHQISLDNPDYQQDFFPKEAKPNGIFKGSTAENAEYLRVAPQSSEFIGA
T2 sequence (P00533 with tags, fused parts or gaps DEL746-750): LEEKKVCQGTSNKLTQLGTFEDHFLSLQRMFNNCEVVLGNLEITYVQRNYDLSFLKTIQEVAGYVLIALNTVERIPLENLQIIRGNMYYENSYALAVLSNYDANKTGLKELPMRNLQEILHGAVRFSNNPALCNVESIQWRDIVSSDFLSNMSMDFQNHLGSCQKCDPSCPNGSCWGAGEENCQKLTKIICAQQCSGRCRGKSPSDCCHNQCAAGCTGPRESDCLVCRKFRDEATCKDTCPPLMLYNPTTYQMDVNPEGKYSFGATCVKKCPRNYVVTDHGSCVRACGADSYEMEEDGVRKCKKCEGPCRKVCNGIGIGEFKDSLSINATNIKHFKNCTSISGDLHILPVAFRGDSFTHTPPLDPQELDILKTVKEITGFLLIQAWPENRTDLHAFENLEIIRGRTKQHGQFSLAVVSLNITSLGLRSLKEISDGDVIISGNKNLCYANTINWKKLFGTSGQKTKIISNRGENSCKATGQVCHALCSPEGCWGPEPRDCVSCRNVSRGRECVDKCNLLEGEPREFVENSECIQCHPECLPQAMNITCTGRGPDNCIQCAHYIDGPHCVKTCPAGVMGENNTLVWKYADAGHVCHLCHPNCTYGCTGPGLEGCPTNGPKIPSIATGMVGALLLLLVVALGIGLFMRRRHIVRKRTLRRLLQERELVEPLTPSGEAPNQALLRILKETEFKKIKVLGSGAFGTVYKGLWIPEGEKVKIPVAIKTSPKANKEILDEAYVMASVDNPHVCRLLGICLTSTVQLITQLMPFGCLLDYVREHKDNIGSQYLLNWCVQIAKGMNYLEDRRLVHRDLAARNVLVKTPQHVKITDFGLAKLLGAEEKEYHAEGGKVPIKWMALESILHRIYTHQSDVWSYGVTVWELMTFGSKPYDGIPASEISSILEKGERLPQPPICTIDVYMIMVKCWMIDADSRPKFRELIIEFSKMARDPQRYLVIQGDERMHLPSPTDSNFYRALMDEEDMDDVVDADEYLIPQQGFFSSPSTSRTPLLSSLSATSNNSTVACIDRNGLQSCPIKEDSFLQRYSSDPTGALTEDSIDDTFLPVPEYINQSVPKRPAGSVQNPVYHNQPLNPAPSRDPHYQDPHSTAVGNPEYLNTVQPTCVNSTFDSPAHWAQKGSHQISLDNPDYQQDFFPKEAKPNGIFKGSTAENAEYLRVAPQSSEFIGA

For C=CC(=O)N[C@H]1C=C(C)c2c(-c3cnc4ccccc4c3)c3c(N)ncnc3n2C1 [Compound A, (S)—N-(4-amino-6-methyl-5-(quinolin-3-yl)-8,9-dihydropyrimido[5,4-b]indolizin-8-yl) acrylamide], the IC50 [1] was 16 ± 2.6 µM, the IC50 [2] was 11.2 ± 6.4 µM and the IC50 [3] was 11.3 ± 5.8 µM. For the same compound, the IC50 [4] was 82.5 ± 9 µM, the IC50 [5] was 104 ± 40 µM and the IC50 [6] was 6.54 ± 1.49 µM. It also gave an IC50 [7] of 11.1 ± 5.6 µM, an IC50 [8] of 9.07 ± 4.74 µM and an IC50 [9] of 13.8 ± 3.8 µM. The IC50 [10] was 6.25 ± 1.83 µM, the IC50 [11] was 16.9 ± 5.9 µM and the IC50 [12] was 15.3 ± 5 µM.
